Source: paper PMC4187030, “Effect of cyclodextrin complexation on phenylpropanoids’ solubility and antioxidant activity” (Beilstein Journal of Organic Chemistry, 2014)
In brackets after ≈: the same amount, converted by molar mass. Read-outs that look alike come from different tables or passages of the source.

Columns and labels:
[1] = DPPH radical scavenging activity; conditions: for Change of DPPH radical scavenging activity upon complexation with CDs: PP in 10 mM CD solution vs water; for Kinetic behavior of reaction with DPPH•: PP with ethanolic DPPH• solution; for DPPH radical scavenging (antioxidant) activity of PP alone: absence of CD, 1 h (3, 4, 6, 7) or 15 h (1, 2, 5), 25 °C
Protocol: The 2,2-diphenyl-1-picrylhydrazyl (DPPH) radical scavenging activity of PP and their inclusion complexes was measured using the method described by Brand-Williams, Cuvelier, and Berset (1995) with some modifications. 1 mg of PP was dissolved in 50 mL of water, or 10 mM CD solution. 2 mL aliquot of the solution was vigorously mixed with 2 mL of ethanolic DPPH^• solution (0.1 mM). […]. Blank sample was prepared by mixing 2 mL of distilled water with 2 mL of DPPH^• solution. The scavenging activity was calculated using the following equation: […]
where As and A0 are the absorbance of sample and blank sample, respectively.

[2] = Phase solubility studies, HP-β-CD
Protocol: (§1) Phase solubility studies were carried out according to the method described by Higuchi and Connors. Excess amount of PP was added to 1 mL of CD solution at different concentrations ranging from 0 to 10 mM. The mixtures were shaken at 25 °C for 24 h then filtered through a 0.45 μm membrane filter. The concentration of PP in the filtrate was determined spectrophotometrically at the maximum wavelength corresponding to each PP. Phase solubility diagrams were obtained by plotting the solubility of PP as a function of CD concentration. Kf value of CD/PP inclusion complex was calculated from the linear segment of the phase–solubility diagrams using the following equation: […]
(§2) where S0 is the intrinsic solubility of PP in the absence of CD and the Slope is the slope of the phase–solubility profile. The solubilizing potential of CD was evaluated by the complexation efficiency (CE) parameter. CE equal the complex to free CD concentration ratio and was calculated from the slope of the phase solubility diagram: […]
(§3) where [CD/PP] is the concentration of dissolved inclusion complex and [CD] is the concentration of dissolved free CD. The CE can be used to calculate the PP:CD ratio as follows:
(§4) The correlation between the CE and the molecular weight of CD or guest allowed the determination of the increase in formulation bulk which can be calculated using the following equation: […]
(§5) where MWCD and MWPP are the molecular weight values of CD and PP, respectively.

[3] = Formation constants (Kf) by UV–visible spectral displacement method, CRYSMEB; assay type: physicochemical; conditions: UV–visible spectral displacement with MO (MO itself by direct titration), SD <10%
Protocol: (§6) Formation constant (Kf) values were calculated using a UV–visible spectral displacement method. This method implies first the characterization of the inclusion complexes between CDs and the competitor (methyl orange, MO). The results are summarized in Table 1 in comparison with values from the literature.
(§7) The UV–visible competition method with methyl orange (MO) as competitor was carried out according to the method described by Landy et al.. In order to calculate CD/PP Kf values, CD/MO inclusion complexes were firstly characterized by a direct titration method. Then, a spectral displacement method was applied by adding PP to a solution containing constant concentration of MO and CD. The addition of PP implied an absorbance increment leading to the calculation of CD/PP Kf values. Spectra were recorded between 520–530 nm for a MO concentration fixed at 0.1 mM. This wavelength range corresponds to the optimal spectral variation between the absorbance of free and complexed forms of MO. All Kf values were calculated by an algorithmic treatment applied to the first derivatives of UV spectra in order to avoid any spectral influence of diffraction phenomena. Absorption studies were performed using a UV–visible dual-beam spectrophotometer (Perkin Elmer Lambda 2S) with a 1 cm thick quartz cuvette.

[4] = α-CD, cited from earlier work
[5] = β-CD, cited from earlier work
[6] = HP-β-CD, cited from earlier work
[7] = Formation constants (Kf) by UV–visible spectral displacement method, α-CD; assay type: physicochemical; conditions: UV–visible spectral displacement with MO (MO itself by direct titration), SD <10%
Protocol: as §6, §7

[8] = CRYSMEB, cited from earlier work
[9] = Formation constants (Kf) by UV–visible spectral displacement method, β-CD; assay type: physicochemical; conditions: UV–visible spectral displacement with MO (MO itself by direct titration), SD <10%
Protocol: as §6, §7

[10] = RAMEB, cited from earlier work
[11] = Formation constants (Kf) by UV–visible spectral displacement method, HP-β-CD; assay type: physicochemical; conditions: UV–visible spectral displacement with MO (MO itself by direct titration), SD <10%
Protocol: as §6, §7

[12] = design: method as in earlier work; conditions: cited from earlier work
[13] = Formation constants (Kf) by UV–visible spectral displacement method, RAMEB; assay type: physicochemical; conditions: UV–visible spectral displacement with MO (MO itself by direct titration), SD <10%
Protocol: as §6, §7

[14] = Phase solubility studies, CRYSMEB
Protocol: as §1, §2, §3, §4, §5

[15] = Phase solubility studies, RAMEB
Protocol: as §1, §2, §3, §4, §5

[16] = Phase solubility studies, β-CD
Protocol: as §1, §2, §3, §4, §5

[17] = Intrinsic solubility (S0) of PP in water; assay type: physicochemical; conditions: thermodynamic from solid, absence of CD, 25 °C
Protocol: as §1, §2

[18] = Protocol: as §1, §2, §3, §4, §5

| Compound | Change of DPPH radical scavenging activity upon complexation with CDs [1] | Kinetic behavior of reaction with DPPH• [1] | DPPH radical scavenging (antioxidant) activity of PP alone [1] | Formation constant (Kf) [3] [M⁻¹] | Formation constant (Kf) [7] [M⁻¹] | Formation constant (Kf) [9] [M⁻¹] | Formation constant (Kf) [11] [M⁻¹] | log P [12] | Formation constant (Kf) [13] [M⁻¹] | also measured |
| --- | --- | --- | --- | --- | --- | --- | --- | --- | --- | --- |
| isoeugenol [Isoeugenol (3)] | kept unchanged | reacted rapidly | higher antioxidant activity | – | – | – | – | – | – | – |
| CC(O)COC[C@H]1O[C@@H]2O[C@H]3[C@H](O)[C@@H](O)[C@@H](O[C@H]4[C@H](O)[C@@H](O)[C@@H](O[C@H]5[C@H](O)[C@@H](O)[C@@H](O[C@H]6[C@H](O)[C@@H](O)[C@@H](O[C@H]7[C@H](O)[C@@H](O)[C@@H](O[C@H]8[C@H](O)[C@@H](O)[C@@H](O[C@H]1[C@H](O)[C@H]2O)O[C@@H]8COCC(C)O)O[C@@H]7COCC(C)O)O[C@@H]6COCC(C)O)O[C@@H]5COCC(C)O)O[C@@H]4COCC(C)O)O[C@@H]3COCC(C)O (stereo partly drawn) [HP-β-CD, hydroxypropyl-β-cyclodextrin] | – | – | – | – | – | – | – | – | – | CE mean value ([2]; HP-β-CD, mean over the studied PPs): 1.42 |
| C/C=C/c1ccc(OC)cc1 [trans-Anethole (1), trans-anethole] | increase in activity | slow kinetic behavior | reacted little | 1039 | 927 | 542 | 845 | 3.096 | 1815 | Formation constant (Kf) ([4]; ref 11): 1163 M⁻¹; Formation constant (Kf) ([4]; ref 23): 710 M⁻¹; Formation constant (Kf) ([5]; ref 11): 630 M⁻¹; Formation constant (Kf) ([5]; ref 23): 497 M⁻¹; Formation constant (Kf) ([6]; ref 11): 1042 M⁻¹; Formation constant (Kf) ([6]; ref 23): 981 M⁻¹; Formation constant (Kf) ([8]; ref 11): 740 M⁻¹; Formation constant (Kf) ([8]; ref 23): 877 M⁻¹; Formation constant (Kf) ([10]; ref 11): 1553 M⁻¹; Formation constant (Kf) ([10]; ref 23): 1110 M⁻¹ |
| O=C(O)/C=C/c1ccc(O)c(O)c1 [Caffeic acid (6), caffeic acid] | kept unchanged | reacted rapidly | higher antioxidant activity | 404 | 1540 | 318 | 526 | – | 991 | Increase in formulation bulk ([14]; CRYSMEB, from CE and molecular weights): 14; Kf ([14]; CRYSMEB, from slope of phase solubility diagram and S0, 25 °C): 552 M⁻¹; Formation constant (Kf) ([5]; ref 26): 278 M⁻¹; Formation constant (Kf) ([5]; ref 27): 516 M⁻¹; Formation constant (Kf) ([6]; ref 28): 279 M⁻¹; Increase in formulation bulk ([15]; RAMEB, from CE and molecular weights): 13; Kf ([15]; RAMEB, from slope of phase solubility diagram and S0, 25 °C): 825 M⁻¹; Increase in formulation bulk ([2]; HP-β-CD, from CE and molecular weights): 18; Kf ([2]; HP-β-CD, from slope of phase solubility diagram and S0, 25 °C): 534 M⁻¹; Kf [16]: 425 M⁻¹; Increase in formulation bulk ([16]; β-CD, from CE and molecular weights): 15; solubility at 24 h [17]: 300 µg/mL (≈ 1670 µM); Increase in formulation bulk [18]: 7; Kf [18]: 1819 M⁻¹ |
| low methylated β-cyclodextrin [CRYSMEB] | – | – | – | – | – | – | – | – | – | CE mean value [14]: 1.21 |
| randomly methylated β-cyclodextrin [RAMEB] | – | – | – | – | – | – | – | – | – | CE mean value [15]: 1.70 |
| C=CCc1ccc(OC)cc1 [Estragole (2), estragole] | increase in activity | slow kinetic behavior | reacted little | 1584 | 335 | 987 | 1508 | 2.818 | 1916 | Increase in formulation bulk [14]: 25; Kf [14]: 1512 M⁻¹; Increase in formulation bulk [15]: 26; Kf [15]: 1694 M⁻¹; Increase in formulation bulk [2]: 32; Kf [2]: 1412 M⁻¹; Increase in formulation bulk [16]: 35; Kf [16]: 882 M⁻¹; Increase in formulation bulk [18]: 36; Kf [18]: 682 M⁻¹ |
| CN(C)c1ccc(N=Nc2ccc(S(=O)(=O)[O-])cc2)cc1.[Na+] [MO, methyl orange, reference compound] | – | – | – | 3594 | 7810 | 2386 | 5597 | – | 15400 | – |
| COc1cc(/C=C/C(=O)O)ccc1O [Ferulic acid (7), ferulic acid] | kept unchanged | reacted rapidly | higher antioxidant activity | 474 | 1769 | 246 | 451 | 1.249 | 908 | Formation constant (Kf) ([4]; ref 29): 1162 M⁻¹; Formation constant (Kf) ([5]; ref 30): 205 M⁻¹; Formation constant (Kf) ([6]; ref 30): 590 M⁻¹ |
| OC[C@H]1O[C@@H]2O[C@H]3[C@H](O)[C@@H](O)[C@@H](O[C@H]4[C@H](O)[C@@H](O)[C@@H](O[C@H]5[C@H](O)[C@@H](O)[C@@H](O[C@H]6[C@H](O)[C@@H](O)[C@@H](O[C@H]7[C@H](O)[C@@H](O)[C@@H](O[C@H]8[C@H](O)[C@@H](O)[C@@H](O[C@H]1[C@H](O)[C@H]2O)O[C@@H]8CO)O[C@@H]7CO)O[C@@H]6CO)O[C@@H]5CO)O[C@@H]4CO)O[C@@H]3CO [β-CD, β-cyclodextrin] | – | – | – | – | – | – | – | – | – | CE mean value [16]: 0.91 |
